The nature of data set [1]: Protein binding in Sprague-Dawley rat plasma at 40 uM incubated for 4 hrs by equilibrium dialysis. It counts as ADME, cell-free. In general terms: Equilibrium dialysis compares concentrations on both sides of a semipermeable membrane.
Data set [2] is described as follows: Drug metabolism in human hepatocytes assessed as formation of 2,2-dimethylbutanoic acid-CoA incubated for 1 hrs by MS/MS analysis. It counts as ADME, cell-based. Particulars: Hepatocyte.
Data set [3] can be described thus: Reduction of propionyl carnitine in human hepatocytes derived from propionic acidemia patient pretreated for 30 mins followed by 13C-isoleucine addition and measured after 1 hr by MS/MS analysis. To be noted: hepatocyte. It counts as functional, cell-based.
The nature of data set [4]: Induction of toxicity in minipig assessed as induction of adverse effect at 300 mg/kg/day. It counts as organism-based, Sus scrofa domesticus. To be noted: pig, in vivo.
The nature of data set [5]: Stability in human hepatocytes assessed as unchanged compound at 50 uM measured after 4 hrs. The class given is ADME, cell-based, Hepatocyte. To be noted: read-out: Stabilty.
Data set [6] in a line: Drug metabolism in Gottingen minipig urine assessed as HST5040-glucuronide metabolite formation at 10 mg/kg administered as single dose by LC/MS analysis. It counts as ADME, organism-based, Sus scrofa domesticus. To be noted: pig, in vivo.
Data set [7] can be described thus: Drug metabolism in human hepatocytes derived from propionic acidemia patient assessed as formation of 2,2-dimethylbutanoic acid-CoA pretreated for 30 mins followed by 13C-isoleucine addition and measured after 1 hr by MS/MS analysis relative to control. It counts as ADME, cell-based. To be noted: Hepatocyte.
The nature of data set [8]: Reduction of 2-Methylcitric acid in human hepatocytes derived from propionic acidemia patient at 30 uM pretreated for 30 mins followed by 13C-isoleucine addition and measured after 1 hr by MS/MS analysis relative to control. It counts as functional, Hepatocyte. Also noted: scale not given: the % may be the effect or the level left. Particulars: time 90 min, 1.5 h.
The nature of data set [9]: Drug excretion in Gottingen minipig feces at 10 mg/kg, po using radiolabeled compound by quantitative whole-body autoradiography. The class given is ADME, organism-based, Sus scrofa domesticus. Particulars: pig, in vivo.
Data set [10] in a line: Oral bioavailability in CD1 mouse at 30 mg/kg. It counts as ADME, organism-based. To be noted: in vivo.
Data set [11] is described as follows: Drug metabolism in rat hepatocytes assessed as formation of 2,2-dimethylbutanoic acid-CoA incubated for 1 hrs by MS/MS analysis. It counts as ADME, cell-based. To be noted: Hepatocyte.
A short description of data set [12]: Half life in Sprague-Dawley rat at 200 mg/kg, po. The class given is ADME, organism-based. Particulars: in vivo.
Data set [13] is described as follows: Reduction of 2-Methylcitric acid in human hepatocytes derived from methylmalonic acidemia patient pretreated for 30 mins followed by 13C-isoleucine addition and measured after 1 hr by MS/MS analysis. The class given is functional, cell-based. To be noted: hepatocyte.
The nature of data set [14]: Cmax in CD1 mouse at 300 mg/kg, po. To be noted: in vivo. Set-up: route oral, dose 300 mg/kg. It counts as ADME, organism-based.
The nature of data set [15]: Drug metabolism in Sprague-Dawley rat assessed as beta-oxidation by measuring phase1 metabolite formation at 10 mg/kg administered single dose using radiolabeled compound. The class given is ADME, organism-based. Particulars: in vivo.
Data set [16] in a line: Ratio of drug level in erythrocyte to plasma in human. The class given is ADME. Particulars: erythrocytes and plasma.
A short description of data set [17]: Drug metabolism in Gottingen minipig plasma assessed as HST5040-carnitine metabolite formation at 10 mg/kg administered as single dose by LC/MS analysis. It counts as ADME, organism-based, Sus scrofa domesticus. To be noted: pig, in vivo.

This note sets out measurements from ChEMBL document CHEMBL4808180, “Identification of 2,2-Dimethylbutanoic Acid (HST5040), a Clinical Development Candidate for the Treatment of Propionic Acidemia and Methylmalonic Acidemia” (J Med Chem, 2021).

For orientation: EC50 means the midpoint of the concentration-response curve. For orientation: bioavailability means dose-corrected exposure relative to a reference, in per cent. A word on the half-life: it is the time in which the quantity being followed falls by half. The term Cmax denotes the peak of the concentration-time curve. One may read the Kp as tissue or fluid exposure divided by exposure in the circulation. Turning to `CCC(C)(C)C(=O)O` [DIMEBUTIC ACID], the PPB in data set [1] was 0%. The EC50 in data set [2] was found to be 5900 nM; in data set [3] it was 2600 nM; in data set [7] it was 3000 nM; in [11], 202000 nM; in data set [13], 800 nM. Further, the Activity result in data set [4] was “Non-Toxic”; in data set [8], -78.6%. Moreover, the remaining at 4 h, 50 µM in [5] is 88%. Further, the Drug metabolism result in [6] is given as “Metabolite_Detected”; in data set [15] it was “Metabolite_Notdetected”; in data set [17] it was “Metabolite_Detected”. This molecule also registered a Drug excretion in data set [9] of 2.26%. The molecule also yielded a bioavailability in data set [10] of 53.4%. This molecule had a half-life in data set [12] of 2.73 h. Also, in data set [14], the Cmax is 465 µg/mL. The Kp in data set [16] came to 0.343.
